Data as given in patent US20230278984A1 (Global Blood Therapeutics, Inc., priority 2020, published 2023).

Biological target: T1, Human pyruvate kinase R (PKR) (Homo sapiens, UniProt P30613)
T1 construct: Human pyruvate kinase R (PKR), residues 14-574; 6x-His (N, cleaved yes); 8x-Arg (N, cleaved yes); SUMO (N, cleaved yes); host or cells: E. coli
Assay: Biochemical assay for activation of pyruvate kinase R (Kinase-Glo luminescence measurement of ATP generation)
Details: for AC50: PKR biochemical assay, 0.1 nM PKR, 0.3 mM ADP, 2 mM FBP, 0.1 mM PEP; for Emax: maximal activation level relative to the activation level achieved by the literature compound AG-348 @ 10 μM
Description: Human pyruvate kinase R (PKR), residues 14-574, and human pyruvate kinase M2, residues 1-531, were cloned into expression plasmids and obtained from ATUM Bio (Newark, Calif.). Proteins were translated as fusions with 6×-His, 8×-Arg, and SUMO at the N-terminus. A third construct of human PKR was truncated, residues 50-574, and similarly cloned for use in crystallography experiments. All proteins were cloned, expressed in E. coli, and purified using similar protocols. Cells were grown at 30° C. in Luria-Bertani broth supplemented with 0.4% glucose to OD600=0.8 and induced with 0.4 mM IPTG at 16° C. for 18 hours. Cells were harvested by centrifugation, resuspended in 50 mM potassium phosphate pH 8.0, 500 mM NaCl, 25 mM imidazole pH 8.0, and 3 mM (3-mercaptoethanol. Cells were lysed using a LM20 microfluidizer from Microfluidics (Westwood, Mass.). The crude lysate was immediately supplemented with 0.2 mM phenylmethylsulfonyl fluoride (PMSF) and centrifuged at 20,000 g for 20 minutes. The soluble fraction was subsequently incubated with 2 mL Ni-NTA (GE Healthcare) per 1,000 ODs for 1 hour at 4° C. Following incubation with the Ni-NTA resin, lysate was removed by pelleting resin at 2,500 g for 3 minutes and washed 3 times with 9 bed volumes of 50 mM potassium phosphate pH 8.0, 500 mM NaCl, 25 mM imidazole, and 3 mM 3-mercaptoethanol. Following the batch wash Ni-NTA resin was loaded onto a gravity column and His-tagged protein was eluted with 6 bed volumes of 10 mM Tris/HCl pH 8.0, 200 mM NaCl, 500 mM imidazole, and 3 mM (3-mercaptoethanol. Eluted protein was dialyzed overnight against 10 mM Tris/HCl pH 8.0, 200 mM NaCl, and 1 mM DTT and the 6×-His-8×-Arg-SUMO-tag was cleaved using a 20:1 molar ratio of protein:3C protease. The protein was purified by anion exchange chromatography on a HiTrapQ or MonoQ 10/100 GL column (GE Healthcare) via a linear NaCl gradient and twice by size exclusion chromatography using a Superdex S200 26/60 column (GE Healthcare) run in 10 mM Tris/HCl pH 8.0, 200 mM NaCl, 10 mM MgCl2, 1 mM DTT. Proteins were concentrated to −12 mg/mL for crystallization and flash frozen for storage.
Biochemical Assay for Activation of Pyruvate Kinase R
Activation of pyruvate kinase R (PKR) and pyruvate kinase M2 (PKM2) were measured using a luminescence based measurement of ATP generation and the Kinase-Glo luminescent kinase reagent kit.

T1 sequence (P30613 14-574): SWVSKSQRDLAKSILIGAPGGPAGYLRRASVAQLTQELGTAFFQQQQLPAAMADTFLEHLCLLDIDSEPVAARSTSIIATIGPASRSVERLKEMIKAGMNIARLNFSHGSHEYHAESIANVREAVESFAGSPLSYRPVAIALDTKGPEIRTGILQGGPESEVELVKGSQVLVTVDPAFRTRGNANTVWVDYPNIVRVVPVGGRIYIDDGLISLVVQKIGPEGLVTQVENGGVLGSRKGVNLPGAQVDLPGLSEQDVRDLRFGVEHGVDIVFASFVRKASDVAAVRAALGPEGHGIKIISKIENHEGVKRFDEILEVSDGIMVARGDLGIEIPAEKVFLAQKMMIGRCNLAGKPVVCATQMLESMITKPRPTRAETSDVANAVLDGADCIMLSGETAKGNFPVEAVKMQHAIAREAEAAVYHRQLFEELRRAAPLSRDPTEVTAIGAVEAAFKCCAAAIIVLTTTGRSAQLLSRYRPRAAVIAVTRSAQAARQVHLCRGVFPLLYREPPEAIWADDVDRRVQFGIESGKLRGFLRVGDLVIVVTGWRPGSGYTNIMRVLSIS

SMILES: CN(Cc1ncnn1-c1ccc(Cl)c(F)c1)C(=O)N(C)Cc1ncnn1-c1ccc(Cl)c(F)c1 [Compound 28, 1,3-bis({[1-(4-chloro-3-fluorophenyl)-1H-1,2,4-triazol-5-yl]methyl})-1,3-dimethylurea]
- AC50: 1200 nM
- Emax: 29%

SMILES: Cc1ccc2ccc(-n3ncnc3CNC(=O)NCc3nc(C)nn3-c3ccc(Cl)c(F)c3)cc2n1 [Compound 29, 3-{[1-(4-chloro-3-fluorophenyl)-3-methyl-1H-1,2,4-triazol-5-yl]methyl}-1-{[1-(2-methylquinolin-7-yl)-1H-1,2,4-triazol-5-yl]methyl}urea]
- AC50: 110 nM
- Emax: 78%

SMILES: CCN(Cc1ncnn1-c1ccc(Cl)c(F)c1)C(=O)NCc1ncnn1-c1ccc(Cl)c(F)c1 [Compound 30, 1,3-bis({[1-(4-chloro-3-fluorophenyl)-1H-1,2,4-triazol-5-yl]methyl})-1-ethylurea]
- AC50: 18 nM
- Emax: 48%

SMILES: O=C(NCc1ncnn1-c1ccc(Cl)c(F)c1)NCc1nnnn1-c1ccc(Cl)c(F)c1 [Compound 31, 3-{[1-(4-chloro-3-fluorophenyl)-1H-1,2,3,4-tetrazol-5-yl]methyl}-1-{[1-(4-chloro-3-fluorophenyl)-1H-1,2,4-triazol-5-yl]methyl}urea]
- AC50: 14 nM
- Emax: 76%

SMILES: CN(Cc1nnnn1-c1ccc(Cl)c(F)c1)C(=O)NCc1ncnn1-c1ccc(Cl)c(F)c1 [Compound 32, 1-{[1-(4-chloro-3-fluorophenyl)-1H-1,2,3,4-tetrazol-5-yl]methyl}-3-{[1-(4-chloro-3-fluorophenyl)-1H-1,2,4-triazol-5-yl]methyl}-1-methylurea]
- AC50: 210 nM
- Emax: 74%

SMILES: CN(Cc1ncnn1-c1ccc(Cl)c(F)c1)C(=O)NCc1nnnn1-c1ccc(Cl)c(F)c1 [Compound 33, 1-{[1-(4-chloro-3-fluorophenyl)-1H-1,2,3,4-tetrazol-5-yl]methyl}-3-{[1-(4-chloro-3-fluorophenyl)-1H-1,2,4-triazol-5-yl]methyl}-3-methylurea]
- AC50: 9 nM
- Emax: 67%

SMILES: O=C(NCc1ncnn1-c1ccc(Cl)c(F)c1)N(CCO)Cc1nnnn1-c1ccc(Cl)c(F)c1 [Compound 34, 1-{[1-(4-chloro-3-fluorophenyl)-1H-1,2,3,4-tetrazol-5-yl]methyl}-3-{[1-(4-chloro-3-fluorophenyl)-1H-1,2,4-triazol-5-yl]methyl}-1-(2-hydroxyethyl)urea]
- AC50: 830 nM
- Emax: 89%

SMILES: O=C(NCc1ncnn1-c1ccc(Cl)c(F)c1)NCc1ncnn1-c1nc2cc(Cl)ccc2s1 [Compound 35, 1-{[1-(5-chloro-1,3-benzothiazol-2-yl)-1H-1,2,4-triazol-5-yl]methyl}-3-{[1-(4-chloro-3-fluorophenyl)-1H-1,2,4-triazol-5-yl]methyl}urea]
- AC50: 3200 nM
- Emax: 28%

SMILES: CCN(Cc1ncnn1-c1ccc(Cl)c(F)c1)C(=O)NCc1nnnn1-c1ccc(Cl)c(F)c1 [Compound 36, 3-{[1-(4-chloro-3-fluorophenyl)-1H-1,2,3,4-tetrazol-5-yl]methyl}-1-{[1-(4-chloro-3-fluorophenyl)-1H-1,2,4-triazol-5-yl]methyl}-1-ethylurea]
- AC50: 130 nM
- Emax: 95%

SMILES: O=C(NCc1ncnn1-c1ccc(Cl)c(F)c1)N(CCF)Cc1ncnn1-c1ccc(Cl)c(F)c1 [Compound 38, 1,3-bis({[1-(4-chloro-3-fluorophenyl)-1H-1,2,4-triazol-5-yl]methyl})-1-(2-fluoroethyl)urea]
- AC50: 55 nM
- Emax: 53%

SMILES: Cc1nc(CNC(=O)NCc2ncnn2-c2ccc3ccncc3c2)n(-c2ccc(Cl)c(F)c2)n1 [Compound 39, 3-{[1-(4-chloro-3-fluorophenyl)-3-methyl-1H-1,2,4-triazol-5-yl]methyl}-1-{[1-(isoquinolin-7-yl)-1H-1,2,4-triazol-5-yl]methyl}urea]
- AC50: 51 nM
- Emax: 63%

SMILES: Cc1nc(CNC(=O)NCc2ncnn2-c2ccc3nccnc3c2)n(-c2ccc(Cl)c(F)c2)n1 [Compound 40, 3-{[1-(4-chloro-3-fluorophenyl)-3-methyl-1H-1,2,4-triazol-5-yl]methyl}-1-{[1-(quinoxalin-6-yl)-1H-1,2,4-triazol-5-yl]methyl}urea]
- AC50: 150 nM
- Emax: 73%

SMILES: Cc1nc(CNC(=O)NCc2ncnn2-c2ccc3ncccc3c2)n(-c2ccc(Cl)c(F)c2)n1 [Compound 41, 1-{[1-(4-chloro-3-fluorophenyl)-3-methyl-1H-1,2,4-triazol-5-yl]methyl}-3-{[1-(quinolin-6-yl)-1H-1,2,4-triazol-5-yl]methyl}urea]
- AC50: 40 nM
- Emax: 81%

SMILES: CC(C)c1nc(CNC(=O)NCc2ncnn2-c2ccc3cccnc3c2)n(-c2ccc(Cl)c(F)c2)n1 [Compound 42, 1-{[1-(4-chloro-3-fluorophenyl)-3-(propan-2-yl)-1H-1,2,4-triazol-5-yl]methyl}-3-{[1-(quinolin-7-yl)-1H-1,2,4-triazol-5-yl]methyl}urea]
- AC50: 540 nM
- Emax: 74%

SMILES: Cc1nc(CNC(=O)NCc2ncnn2-c2cnc3cccnc3c2)n(-c2ccc(Cl)c(F)c2)n1 [Compound 43, 1-{[1-(4-chloro-3-fluorophenyl)-3-methyl-1H-1,2,4-triazol-5-yl]methyl}-3-{[1-(1,5-naphthyridin-3-yl)-1H-1,2,4-triazol-5-yl]methyl}urea]
- AC50: 100 nM
- Emax: 84%

SMILES: Cc1nc(CNC(=O)NCc2ncnn2-c2ccc3c(c2)ncn3C)n(-c2ccc(Cl)c(F)c2)n1 [Compound 44, 1-{[1-(4-chloro-3-fluorophenyl)-3-methyl-1H-1,2,4-triazol-5-yl]methyl}-3-{[1-(1-methyl-1H-1,3-benzodiazol-5-yl)-1H-1,2,4-triazol-5-yl]methyl}urea]
- AC50: 81 nM
- Emax: 94%

SMILES: CCc1nc(CNC(=O)NCc2ncnn2-c2ccc3cccnc3c2)n(-c2ccc(Cl)c(F)c2)n1 [Compound 45, 1-{[1-(4-chloro-3-fluorophenyl)-3-ethyl-1H-1,2,4-triazol-5-yl]methyl}-3-{[1-(quinolin-7-yl)-1H-1,2,4-triazol-5-yl]methyl}urea]
- AC50: 110 nM
- Emax: 80%

SMILES: Cc1nc(CNC(=O)NCc2ncnn2-c2ccc3ncc(F)cc3c2)n(-c2ccc(Cl)c(F)c2)n1 [Compound 46, 3-{[1-(4-chloro-3-fluorophenyl)-3-methyl-1H-1,2,4-triazol-5-yl]methyl}-1-{[1-(3-fluoroquinolin-6-yl)-1H-1,2,4-triazol-5-yl]methyl}urea]
- AC50: 38 nM
- Emax: 74%

SMILES: Cc1nc(CNC(=O)NCc2ncnn2-c2cc(F)c3cccnc3c2)n(-c2ccc(Cl)c(F)c2)n1 [Compound 47, 1-{[1-(4-chloro-3-fluorophenyl)-3-methyl-1H-1,2,4-triazol-5-yl]methyl}-3-{[1-(5-fluoroquinolin-7-yl)-1H-1,2,4-triazol-5-yl]methyl}urea]
- AC50: 42 nM
- Emax: 85%

SMILES: Cc1nc(CNC(=O)NCc2ncnn2-c2ccc3cc(F)cnc3c2)n(-c2ccc(Cl)c(F)c2)n1 [Compound 48, 1-{[1-(4-chloro-3-fluorophenyl)-3-methyl-1H-1,2,4-triazol-5-yl]methyl}-3-{[1-(3-fluoroquinolin-7-yl)-1H-1,2,4-triazol-5-yl]methyl}urea]
- AC50: 83 nM
- Emax: 74%

SMILES: CCc1nc(CNC(=O)NCc2ncnn2-c2ccc3nccnc3c2)n(-c2ccc(Cl)c(F)c2)n1 [Compound 49, 1-{[1-(4-chloro-3-fluorophenyl)-3-ethyl-1H-1,2,4-triazol-5-yl]methyl}-3-{[1-(quinoxalin-6-yl)-1H-1,2,4-triazol-5-yl]methyl}urea]
- AC50: 150 nM
- Emax: 79%

SMILES: COC(=O)c1cc(-n2ncnc2CNC(=O)NCc2nc(C)nn2-c2ccc(Cl)c(F)c2)ccc1Cl [Compound 50, methyl 2-chloro-5-(5-{[({[1-(4-chloro-3-fluorophenyl)-3-methyl-1H-1,2,4-triazol-5-yl]methyl}carbamoyl)amino]methyl}-1H-1,2,4-triazol-1-yl)benzoate]
- AC50: 32 nM
- Emax: 64%

SMILES: Cc1nc(CNC(=O)NCc2ncnn2-c2ccc3c(cnn3C)c2)n(-c2ccc(Cl)c(F)c2)n1 [Compound 51, 1-{[1-(4-chloro-3-fluorophenyl)-3-methyl-1H-1,2,4-triazol-5-yl]methyl}-3-{[1-(1-methyl-1H-indazol-5-yl)-1H-1,2,4-triazol-5-yl]methyl}urea]
- AC50: 66 nM
- Emax: 75%
